system: spleen cells; test: Cytokine (IFN-γ, IL-4) production in mouse spleen cell culture, sandwich ELISA assay; type: cell-based; settings: mouse spleen cells 2×10^5 cells/well, reagent at 2, 20 and 200 ng/mL, supernatant 4 days later, values only in FIG. 1-6
Protocol: The spleen cells removed from the spleen of mouse were individually prepared to 2×10^5 cells/well (96-well plate) using RPMI1640 culture medium (manufactured by Sigma Corporation) containing 10% fetal calf serum (FCS). A reagent was added to the culture medium at each of the concentrations of 2 ng/mL, 20 ng/mL and 200 ng/mL. The cytokine amount in the culture supernatant 4 days later was measured by sandwich ELISA assay. As the test substances, compounds 33 and 34 obtained in Examples 14 and 15 were used, and α-galactosylceramide represented by the following formula (a) (α-GC, abbreviated as compound a in the Figure) was used as a control substance. In addition, DMSO was used as a control.
The cytokine amount was measured by sandwich ELISA assay in the same manner as in Experimental Example 1 except that compound 23 obtained in Example 6 was used as a test substance. In addition, the time course changes in the amount of IFN-γ production are shown in FIG. 5, and the time course changes in the amount of IL-4 production are shown in FIG. 6.

Row | SMILES | cytokine production pattern (IFN-γ and IL-4 production amount in culture supernatant)
1 | CCCCCCCCCCCCCCCCCCCCCCCCCC(=O)N1[C@@H](CCCCCCCCCCCCCC)[C@@H](O)[C@@H]1COC1OC(CO)C(O)C(O)C1O (stereo partly shown) [compound 23] | ability to preferentially induce IL-4 production
2 | CCCCCCCCCCCCCCCCCCCCCCCCCC(=O)N1[C@@H](CCCCCCCCCCCCC)C[C@@H](O)[C@@H]1COC1OC(CO)C(O)C(O)C1O (stereo partly shown) [compound 33] | IL-4 preferential cytokine production pattern
3 | CCCCCCCCCCCCCCCCCCCCCCCCCC(=O)N1[C@@H](CCCCCCCCCCCCC)C[C@@H](O)[C@@H]1COC1OC(CO)C(O)C(O)C1O (stereo partly shown) [compound 34] | IL-4 preferential cytokine production pattern
4 | CCCCCCCCCCCCCCCCCCCCCCCCCC(=O)N[C@@H](COC1OC(CO)C(O)C(O)C1O)[C@H](O)[C@H](O)CCCCCCCCCCCCCC (stereo partly drawn) [α-galactosylceramide, reference compound] | produced both IFN-γ and IL-4 in large amounts
